Laboratory results: ChEMBL document CHEMBL1201862, “PubChem BioAssay data set” (2004)
The source made the active and inactive calls.

Assays:
HEK293 = experiment: cytotoxicity in HEK293T NF-kB-Luc cells, SAR follow-up, cytotoxicity control for NF-kB activator project, cell-based, resazurin fluorescence (AID 493251); assay type: functional; details: Homo sapiens
CAAX prenyl protease 2 [1] = biological target: CAAX prenyl protease 2 (Homo sapiens, UniProt Q9Y256); experiment: human Rce1 protease inhibitors, dose response, biochemical, yeast membranes, quenched-peptide fluorescence, cherry-pick (AID 588849)
[2] = biological target: T1, Polyadenylate-binding protein 1 (Homo sapiens, UniProt P11940); experiment: PABP1 MLLE–PAM2 binding inhibitor potency, dose response, biochemical, fluorescence polarization, FITC-PAM2 peptide (AID 602259); assay type: functional; details: read-out: IC50_Mean
[3] = biological target: T1, Polyadenylate-binding protein 1; experiment: PABP1 MLLE–PAM2 interaction inhibitors, dose response, miRNA deadenylation inhibitor project, biochemical, fluorescence polarization, Cy5-PAM2 peptide, secondary (AID 602260); assay type: functional; details: read-out: IC50_Mean
Trypsin = Trypsin (Sus scrofa, UniProt P00761); experiment: porcine trypsin inhibitors, dose response, selectivity assay for Rce1 protease inhibitor project, biochemical, quenched peptide fluorescence, cherry-pick (AID 488789)
CAAX prenyl protease 2 [4] = biological target: T2, CAAX prenyl protease 2 (Saccharomyces cerevisiae S288c, UniProt Q03530); assay type: biochemical
T2 sequence (Q03530 whole entry): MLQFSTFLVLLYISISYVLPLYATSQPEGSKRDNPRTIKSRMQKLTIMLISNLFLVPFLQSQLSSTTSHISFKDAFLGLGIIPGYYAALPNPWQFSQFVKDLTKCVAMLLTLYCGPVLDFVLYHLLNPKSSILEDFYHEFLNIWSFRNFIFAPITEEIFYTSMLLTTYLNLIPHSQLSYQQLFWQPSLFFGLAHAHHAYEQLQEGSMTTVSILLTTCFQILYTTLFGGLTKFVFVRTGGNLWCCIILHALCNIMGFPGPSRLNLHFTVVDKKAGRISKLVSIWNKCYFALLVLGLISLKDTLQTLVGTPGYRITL

[5] = biological target: Beta-2 adrenergic receptor (Homo sapiens, UniProt P07550); experiment: beta2AR agonists driving receptor internalization, dose response, cell-based, FAP fluorogen, flow cytometry, cherry pick 1 (AID 588763); assay type: functional
[6] = cytotoxicity toward DRD oncogenic fibroblasts, dose response, cell-based, non-viral oncogenic, luminescence (AID 1934); assay type: functional; details: Homo sapiens
[7] = growth suppression of PTEN-null colon cells, dose response, cell-based, HCT116 PTEN knockout (AID 1047); assay type: functional;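 further: HCT116 colon tumor cells with PTEN knocked out; cells exposed to compound for 60 hours before readout; potency for loss of cell viability measured by luminescence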
INS1 = experiment: beta cell apoptosis inhibitors, cytokine rescue, dose response, luminescence, retest (AID 449756); assay type: functional, cell-based; details: Rattus norvegicus;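 further: cell death triggered by IL-1 beta plus TNF-alpha plus IFN-gamma mixture; protective hits raise ATP signal compared with cytokine alone wells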
BJ [8] = experiment: cytotoxicity toward Ras-transformed BJeLR fibroblasts, dose response, cell-based, alamar blue fluorescence, cherrypicked samples (AID 2631); assay type: functional; details: Homo sapiens;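 further: confirmatory dose-response assay in RAS-dependent BJ fibroblasts engineered with TERT, LT and ST, with cytotoxicity read by fluorescence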
[9] = HeLa cell cytotoxicity, dose response, cytotoxicity control for MgcRacGAP inhibitor project (AID 624300); assay type: functional
[10] = growth suppression of beta-catenin-knockout colon cells, dose response, cell-based, HCT116, human colon tumor (AID 1045); assay type: functional;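 further: HCT116 colon tumor cells with beta catenin knocked out; cells exposed to compound for 60 hours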
[11] = biological target: G-protein coupled receptor 55 (Homo sapiens, UniProt Q9Y2T6); experiment: GPR55 agonists via beta-arrestin recruitment, primary screen, imaging, U2OS cells, beta-arrestin-GFP redistribution (AID 1961); assay type: functional
[12] = Fluorescence-based cell-based high throughput dose response assay for inhibitors of the interaction of nucleotide-binding oligomerization domain containing 2 (NOD2) and the receptor-interacting serine-threonine kinase 2 (RIPK2).; assay type: functional; details: Homo sapiens
BJ [13] = experiment: cytotoxicity toward BJ-TERT fibroblasts, dose response, cell-based, RAS-independent, luminescence (AID 1933); assay type: functional; details: Homo sapiens
Beta-galactosidase = Beta-galactosidase (Escherichia coli, UniProt Q8VNN2); experiment: beta-galactosidase enzyme inhibitors and activators, dose response, artefact control for CCR6 antagonist project, biochemical, E. coli enzyme, set 3 (AID 504712); assay type: functional
Beta Lactamase = Beta Lactamase (Pseudomonas aeruginosa, UniProt Q932Y6); experiment: beta-lactamase reporter inhibitor potency, dose response, artefact control for NOD2-RIPK2 interaction inhibitor project, BLA reporter cells, FRET fluorescence (AID 651552); assay type: functional, cell-based
BJ [14] = experiment: cells; assay type: functional, cell-based; details: Homo sapiens
[15] = biological target: T3, Rac GTPase-activating protein 1 (Homo sapiens, UniProt Q9H0H5); experiment: MgcRacGAP GTPase-activating activity inhibitors, confirmation, biochemical, ADP Hunter fluorescence, primary and confirmatory (AID 624330); assay type: functional
T3 sequence (Q9H0H5 whole entry): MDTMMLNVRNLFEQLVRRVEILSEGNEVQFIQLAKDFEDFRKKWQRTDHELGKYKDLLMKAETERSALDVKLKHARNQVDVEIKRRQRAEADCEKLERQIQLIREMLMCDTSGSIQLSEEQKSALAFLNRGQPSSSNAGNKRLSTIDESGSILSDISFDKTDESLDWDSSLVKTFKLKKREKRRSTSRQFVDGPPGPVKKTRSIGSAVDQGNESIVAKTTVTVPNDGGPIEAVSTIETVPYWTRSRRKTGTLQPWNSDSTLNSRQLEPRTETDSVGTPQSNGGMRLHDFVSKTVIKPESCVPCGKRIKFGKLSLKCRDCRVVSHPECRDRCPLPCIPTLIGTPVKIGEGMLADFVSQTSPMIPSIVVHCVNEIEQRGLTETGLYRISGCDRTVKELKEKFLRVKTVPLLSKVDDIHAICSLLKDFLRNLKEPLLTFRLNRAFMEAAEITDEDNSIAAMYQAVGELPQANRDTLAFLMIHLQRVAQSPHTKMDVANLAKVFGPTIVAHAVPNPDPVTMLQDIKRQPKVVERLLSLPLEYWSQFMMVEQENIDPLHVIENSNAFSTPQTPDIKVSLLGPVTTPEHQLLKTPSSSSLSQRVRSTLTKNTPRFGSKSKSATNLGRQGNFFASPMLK

[16] = biological target: C-C chemokine receptor type 6 (Homo sapiens, UniProt P51684); experiment: CCR6 receptor antagonists, dose response, cell-based, luminescent beta-arrestin readout (AID 504728); assay type: functional
[17] = biological target: T4, Mannose-6-phosphate isomerase (Homo sapiens, UniProt P34949); experiment: PMI enzyme inhibitors, confirmation, biochemical, fluorescence intensity (AID 1535)
T4 sequence (P34949 whole entry): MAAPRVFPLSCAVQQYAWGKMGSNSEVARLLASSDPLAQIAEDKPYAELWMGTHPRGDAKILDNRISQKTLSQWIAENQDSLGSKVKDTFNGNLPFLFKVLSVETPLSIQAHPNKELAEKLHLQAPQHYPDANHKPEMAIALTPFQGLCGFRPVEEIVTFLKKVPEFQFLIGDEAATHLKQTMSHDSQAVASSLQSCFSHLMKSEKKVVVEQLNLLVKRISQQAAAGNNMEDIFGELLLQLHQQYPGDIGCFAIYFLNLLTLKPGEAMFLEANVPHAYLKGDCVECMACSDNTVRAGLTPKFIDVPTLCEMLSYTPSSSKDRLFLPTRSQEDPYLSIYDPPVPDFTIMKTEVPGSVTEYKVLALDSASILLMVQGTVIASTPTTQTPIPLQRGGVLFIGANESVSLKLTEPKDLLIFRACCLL

T1 sequence (P11940 whole entry): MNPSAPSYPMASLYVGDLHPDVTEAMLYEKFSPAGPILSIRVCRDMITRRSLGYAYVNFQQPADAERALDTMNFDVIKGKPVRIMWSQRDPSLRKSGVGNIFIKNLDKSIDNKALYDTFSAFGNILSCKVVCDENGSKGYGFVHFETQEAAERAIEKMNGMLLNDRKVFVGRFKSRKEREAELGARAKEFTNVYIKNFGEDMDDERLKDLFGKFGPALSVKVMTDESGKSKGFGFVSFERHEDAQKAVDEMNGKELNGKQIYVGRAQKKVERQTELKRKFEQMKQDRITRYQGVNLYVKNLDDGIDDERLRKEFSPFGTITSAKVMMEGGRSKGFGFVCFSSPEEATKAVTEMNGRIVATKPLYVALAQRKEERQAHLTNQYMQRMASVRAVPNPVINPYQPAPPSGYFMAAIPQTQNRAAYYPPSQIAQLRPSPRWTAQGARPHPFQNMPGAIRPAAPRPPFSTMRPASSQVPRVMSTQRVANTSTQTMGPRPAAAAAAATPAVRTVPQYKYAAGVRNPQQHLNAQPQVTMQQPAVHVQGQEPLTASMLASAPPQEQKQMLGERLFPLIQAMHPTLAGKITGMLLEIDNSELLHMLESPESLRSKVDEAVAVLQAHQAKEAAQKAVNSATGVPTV
Chain of G-protein coupled receptor 55 (Q9Y2T6 whole entry, the tested form may be a part): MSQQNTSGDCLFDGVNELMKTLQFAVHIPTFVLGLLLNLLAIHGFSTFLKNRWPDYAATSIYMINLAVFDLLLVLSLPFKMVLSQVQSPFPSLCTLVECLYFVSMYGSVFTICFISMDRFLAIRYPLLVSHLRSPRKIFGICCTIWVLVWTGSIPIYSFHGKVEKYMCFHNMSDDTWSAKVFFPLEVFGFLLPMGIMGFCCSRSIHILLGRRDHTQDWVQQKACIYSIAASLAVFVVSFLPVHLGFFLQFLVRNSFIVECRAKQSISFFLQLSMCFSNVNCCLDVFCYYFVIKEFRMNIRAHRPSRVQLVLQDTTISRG
Chain of CAAX prenyl protease 2 (Homo sapiens, UniProt Q9Y256) (Q9Y256 whole entry): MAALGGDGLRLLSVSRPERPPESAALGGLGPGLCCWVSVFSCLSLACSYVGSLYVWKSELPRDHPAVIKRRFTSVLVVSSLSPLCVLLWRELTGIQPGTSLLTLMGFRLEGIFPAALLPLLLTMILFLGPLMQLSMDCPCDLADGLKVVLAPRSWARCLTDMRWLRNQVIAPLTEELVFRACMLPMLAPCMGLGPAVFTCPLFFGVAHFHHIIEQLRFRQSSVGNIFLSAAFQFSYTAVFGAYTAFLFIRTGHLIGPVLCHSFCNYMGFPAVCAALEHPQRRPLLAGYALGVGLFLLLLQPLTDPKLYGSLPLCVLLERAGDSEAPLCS
Chain of Trypsin (P00761 whole entry): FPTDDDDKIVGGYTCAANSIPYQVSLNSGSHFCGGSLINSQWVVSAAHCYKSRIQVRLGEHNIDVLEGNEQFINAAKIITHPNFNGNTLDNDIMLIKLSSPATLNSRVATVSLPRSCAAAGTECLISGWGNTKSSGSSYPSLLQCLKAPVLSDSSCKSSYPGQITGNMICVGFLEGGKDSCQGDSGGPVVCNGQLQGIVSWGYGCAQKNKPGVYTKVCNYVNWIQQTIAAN
Chain of C-C chemokine receptor type 6 (P51684 whole entry): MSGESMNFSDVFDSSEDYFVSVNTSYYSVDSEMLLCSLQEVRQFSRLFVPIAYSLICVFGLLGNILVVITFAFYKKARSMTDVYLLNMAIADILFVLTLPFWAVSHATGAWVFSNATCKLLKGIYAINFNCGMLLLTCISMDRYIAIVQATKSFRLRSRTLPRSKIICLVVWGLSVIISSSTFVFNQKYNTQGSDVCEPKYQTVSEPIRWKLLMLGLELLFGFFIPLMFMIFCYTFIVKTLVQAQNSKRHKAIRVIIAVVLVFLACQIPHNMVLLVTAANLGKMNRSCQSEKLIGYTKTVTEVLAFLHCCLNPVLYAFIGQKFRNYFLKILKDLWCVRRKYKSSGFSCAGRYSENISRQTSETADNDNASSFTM
Chain of Beta Lactamase (Q932Y6 whole entry): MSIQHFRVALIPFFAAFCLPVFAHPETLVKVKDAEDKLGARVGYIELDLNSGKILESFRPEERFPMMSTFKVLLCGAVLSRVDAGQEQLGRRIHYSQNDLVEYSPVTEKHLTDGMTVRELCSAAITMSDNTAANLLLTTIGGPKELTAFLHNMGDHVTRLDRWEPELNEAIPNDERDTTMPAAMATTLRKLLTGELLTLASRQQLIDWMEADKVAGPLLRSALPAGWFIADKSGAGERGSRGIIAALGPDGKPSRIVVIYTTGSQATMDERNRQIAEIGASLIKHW
Chain of Beta-galactosidase (Q8VNN2 whole entry): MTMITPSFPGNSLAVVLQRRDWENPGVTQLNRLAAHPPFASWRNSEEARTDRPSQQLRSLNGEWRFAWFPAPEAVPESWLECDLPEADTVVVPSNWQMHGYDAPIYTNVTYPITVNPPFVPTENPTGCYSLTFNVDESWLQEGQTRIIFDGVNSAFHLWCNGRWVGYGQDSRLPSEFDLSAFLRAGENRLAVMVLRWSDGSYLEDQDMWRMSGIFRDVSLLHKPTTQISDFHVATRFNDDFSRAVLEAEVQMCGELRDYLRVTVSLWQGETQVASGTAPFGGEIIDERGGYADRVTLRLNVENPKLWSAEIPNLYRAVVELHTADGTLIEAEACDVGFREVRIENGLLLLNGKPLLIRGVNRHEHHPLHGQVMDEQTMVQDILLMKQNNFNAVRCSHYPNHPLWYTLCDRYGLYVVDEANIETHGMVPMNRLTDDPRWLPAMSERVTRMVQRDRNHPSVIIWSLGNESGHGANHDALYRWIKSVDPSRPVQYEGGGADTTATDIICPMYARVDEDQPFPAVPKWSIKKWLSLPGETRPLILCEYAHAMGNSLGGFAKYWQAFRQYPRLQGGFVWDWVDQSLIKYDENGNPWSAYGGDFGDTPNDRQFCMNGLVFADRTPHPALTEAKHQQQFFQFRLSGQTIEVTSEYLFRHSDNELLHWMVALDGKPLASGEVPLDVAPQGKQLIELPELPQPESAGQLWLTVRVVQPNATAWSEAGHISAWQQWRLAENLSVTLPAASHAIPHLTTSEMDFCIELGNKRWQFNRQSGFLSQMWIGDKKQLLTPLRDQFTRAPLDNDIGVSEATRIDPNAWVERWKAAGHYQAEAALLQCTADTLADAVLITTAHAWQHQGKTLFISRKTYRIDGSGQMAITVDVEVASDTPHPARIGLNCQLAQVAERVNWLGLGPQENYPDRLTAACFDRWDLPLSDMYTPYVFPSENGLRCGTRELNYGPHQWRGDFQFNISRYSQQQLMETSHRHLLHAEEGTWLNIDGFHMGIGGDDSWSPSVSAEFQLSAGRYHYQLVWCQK
Chain of Beta-2 adrenergic receptor (P07550 whole entry): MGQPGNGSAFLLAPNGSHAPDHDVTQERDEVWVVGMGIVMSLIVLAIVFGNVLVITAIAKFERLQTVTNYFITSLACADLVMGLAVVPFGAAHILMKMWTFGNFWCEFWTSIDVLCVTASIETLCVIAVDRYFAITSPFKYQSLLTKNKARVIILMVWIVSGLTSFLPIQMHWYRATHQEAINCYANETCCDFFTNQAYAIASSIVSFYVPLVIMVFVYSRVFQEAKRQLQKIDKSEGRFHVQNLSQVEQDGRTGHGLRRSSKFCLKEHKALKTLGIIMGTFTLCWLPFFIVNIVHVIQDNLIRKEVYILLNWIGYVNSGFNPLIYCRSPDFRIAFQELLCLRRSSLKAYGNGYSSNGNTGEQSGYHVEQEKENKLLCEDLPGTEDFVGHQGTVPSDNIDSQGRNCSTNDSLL

Compound: O=C(O)CCc1nc(-c2ccccc2)no1
- IC50 (HEK293): > 80 µM (inactive)

Compound: COC(=O)Nc1nnc(-c2ccncc2)s1
- AC50 (CAAX prenyl protease 2 [1]): 5.84 µM (active)
- IC50 [2]: > 66 µM (inactive)
- IC50 [3]: > 66 µM (inactive)
- AC50 (Trypsin): 12.5 µM (active)
- AC50 (CAAX prenyl protease 2 [4]): 9.58 µM (active)

Compound: CCCCN(CCCC)c1nc2ccccc2nc1NS(=O)(=O)c1ccc(NC(C)=O)cc1
- EC50 [5]: 0.0203 µM (active)

Compound: COC(=O)c1ccc2c(c1)C(C)(C)C(/C=C/c1ccc(OC)c(OC)c1OC)=[N+]2C
- EC50 [6]: 3.71 µM (active)
- EC50 [7]: 5.04 µM (active)
- AC50 (INS1): 2.09 µM (active)
- EC50 (BJ [8]): 1.3 µM (inconclusive)
- CC50 [9]: 60.4 µM (active)
- EC50 [10]: 3.84 µM (active)
- EC50 [11]: 1.51 µM (active)
- IC50 [12]: 1.93 µM (active)
- EC50 (BJ [13]): 3.9 µM (inconclusive)
- IC50 (Beta-galactosidase): > 66.6 µM (inactive)
- IC50 (Beta Lactamase): 39.1 µM (inactive)
- EC50 (BJ [14]): 14.4 µM (active)
- IC50 [15]: 25.7 µM (active)
- IC50 [16]: 21.4 µM (inactive)

Compound: Clc1nss/c1=N\c1nc2ccccc2[nH]1
- IC50 [17]: 98.1 µM (active)
